According to US20230285514A1, “STAPLED LACTAM CO-AGONISTS OF THE GLUCAGON AND GLP-1 RECEPTORS” (Merck Sharp & Dohme LLC, priority 2019, published 2023):
*1 amine or outer side, *2 acyl side, *3 side chain or, on linkers, in order; H or OH if unused. Where a SMILES comes first, the peptide text is derived from it. Bridges are numbered along the chain shown (N, C = ends). Side-chain parts run from the residue outwards. [ ]: non-standard residue; d: D form. The star is where a group is joined. γGlu = O=C(O)[C@H](CCC(=O)[*:2])N[*:1]; Palmitoyl = CCCCCCCCCCCCCCCC(=O)*

molecular target: T1, human GCGR (Homo sapiens, UniProt P47871); experiment: cAMP activity assay, cells expressing human GCGR; assay type: cell-based; conditions: ratio of human GCGR EC50 to human GLP1R EC50
T1 construct: expressed in transfected cells
T1 sequence (P47871 26-477): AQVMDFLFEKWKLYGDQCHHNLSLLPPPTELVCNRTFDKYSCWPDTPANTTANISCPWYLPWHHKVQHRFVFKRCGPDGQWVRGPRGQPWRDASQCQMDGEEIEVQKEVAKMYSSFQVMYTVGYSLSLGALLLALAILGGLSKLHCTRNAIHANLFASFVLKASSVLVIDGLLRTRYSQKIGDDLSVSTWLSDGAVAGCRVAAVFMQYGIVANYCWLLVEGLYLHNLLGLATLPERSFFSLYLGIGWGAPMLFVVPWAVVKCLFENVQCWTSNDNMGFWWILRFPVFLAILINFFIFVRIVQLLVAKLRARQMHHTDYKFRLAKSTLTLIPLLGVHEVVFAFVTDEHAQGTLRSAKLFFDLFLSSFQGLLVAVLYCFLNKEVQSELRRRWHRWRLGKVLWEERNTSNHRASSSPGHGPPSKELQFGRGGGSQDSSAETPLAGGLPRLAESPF
Experimental: Activity of the peptides at the Glucagon receptor (GCGR) and GLP-1 receptor (GLP1R) was measured in a cAMP activity assay. Peptides were dissolved in 100% DMSO and serially diluted to generate 10 point titrations. The peptide solutions were then transferred into 384-well assay plates (150 nL/well). Assay ready frozen cells expressing human GLP1R or human GCGR were suspended in growth media consisting of DMEM medium (GIBCO), 10% FBS (GIBCO), 1×NEAA(GIBCO), 1×P/S (GIBCO), 10 ug/ml Blasticidin (GIBCO) and 200 μg/mL Hygromycin (GIBCO). […] The cell suspensions (15 μL) were then added to the assay plates containing the peptide solutions (30,000 cells/well for human GCGR; 10,000 cells/well for human GLP1R). […] Production of cAMP was determined using […] kits (DiscoverX) following manufacturer protocol. The plates were incubated for overnight at room temperature in the dark. Luminescence was measured using an EnVision Multilabel plate reader (Perkin Elmer). Native GLP-1 and Glucagon (Bachem) are used as control peptides.

hGCGR/hGLPIR (hTone) | Compound
0.84 | CCCCCCCCCCCCCCCC(=O)N[C@@H](CCC(=O)N[C@@H](CCC(=O)NCCCC[C@H](NC(=O)[C@H](CC(=O)O)NC(=O)[C@H](CO)NC(=O)[C@@H](NC(=O)[C@H](Cc1ccccc1)NC(=O)[C@@H](NC(=O)CNC(=O)[C@H](CCC(N)=O)NC(=O)[C@@H](CO)NC(=O)[C@@H](N)Cc1c[nH]cn1)[C@@H](C)O)[C@@H](C)O)C(=O)N[C@@H](CO)C(=O)N[C@@H](CCCCN)C(=O)N[C@@H](Cc1ccc(O)cc1)C(=O)N[C@@H](CC(C)C)C(=O)N[C@@H](CC(=O)O)C(=O)N[C@@H](CCC(=O)O)C(=O)N[C@@H](CCCNC(=N)N)C(=O)N[C@@H](C)C(=O)N[C@@H](C)C(=O)N[C@H]1CCCCNC(=O)CC[C@@H](C(=O)N[C@@H](Cc2c[nH]c3ccccc23)C(=O)N[C@@H](CC(C)C)C(=O)N[C@@H](CC(C)C)C(=O)N[C@@H](CC(=O)O)C(=O)N[C@H](C(N)=O)[C@@H](C)O)NC(=O)[C@H](C(C)C)NC(=O)[C@H](Cc2ccccc2)NC(=O)[C@H](CC(=O)O)NC1=O)C(=O)O)C(=O)O [SEQ ID NO: 8] (H-H[dS]QGTFTSDK([γGlu-γGlu-Palmitoyl])SKYLDERAAKDFVEWLLDT-NH2; lactam 20-24; N-terminus assumed)
0.8 | CCCCCCCCCCCCCCCC(=O)N[C@@H](CCC(=O)N[C@@H](CCC(=O)NCCCC[C@H](NC(=O)[C@H](CC(=O)O)NC(=O)[C@H](CO)NC(=O)[C@@H](NC(=O)[C@H](Cc1ccccc1)NC(=O)[C@@H](NC(=O)CNC(=O)[C@H](CCC(N)=O)NC(=O)[C@@H](CO)NC(=O)[C@@H](N)Cc1c[nH]cn1)[C@@H](C)O)[C@@H](C)O)C(=O)N[C@@H](CO)C(=O)N[C@@H](CCCCN)C(=O)N[C@@H](Cc1ccc(O)cc1)C(=O)N[C@@H](CC(C)C)C(=O)N[C@@H](CC(=O)O)C(=O)N[C@H]1CCCCNC(=O)CC[C@@H](C(=O)N[C@@H](CC(=O)O)C(=O)N[C@@H](Cc2ccccc2)C(=O)N[C@H](C(=O)N[C@@H](CCC(N)=O)C(=O)N[C@@H](Cc2c[nH]c3ccccc23)C(=O)N[C@@H](CC(C)C)C(=O)N[C@@H](CC(C)C)C(=O)N[C@@H](CC(=O)O)C(=O)N[C@H](C(N)=O)[C@@H](C)O)C(C)C)NC(=O)[C@H](C)NC(=O)[C@H](C)NC(=O)[C@H](CCCNC(=N)N)NC1=O)C(=O)O)C(=O)O [SEQ ID NO: 10] (H-H[dS]QGTFTSDK([γGlu-γGlu-Palmitoyl])SKYLDKRAAEDFVQWLLDT-NH2; lactam 16-20; N-terminus assumed)

Compound | hGCGR/hGLPIR (hTone)
CCCCCCCCCCCCCCCC(=O)N[C@@H](CCC(=O)N[C@@H](CCC(=O)NCCCC[C@H](NC(=O)[C@H](CC(=O)O)NC(=O)[C@H](CO)NC(=O)[C@@H](NC(=O)[C@H](Cc1ccccc1)NC(=O)[C@@H](NC(=O)CNC(=O)[C@H](CCC(N)=O)NC(=O)[C@@H](CO)NC(=O)[C@@H](N)Cc1c[nH]cn1)[C@@H](C)O)[C@@H](C)O)C(=O)N[C@@H](CO)C(=O)N[C@@H](CCCCN)C(=O)N[C@@H](Cc1ccc(O)cc1)C(=O)N[C@@H](CC(C)C)C(=O)N[C@@H](CC(=O)O)C(=O)N[C@@H](CCC(=O)O)C(=O)N[C@@H](CCCNC(=N)N)C(=O)N[C@@H](C)C(=O)N[C@@H](C)C(=O)N[C@H]1CCC(=O)NCCCC[C@@H](C(=O)N[C@@H](Cc2c[nH]c3ccccc23)C(=O)N[C@@H](CC(C)C)C(=O)N[C@@H](CC(C)C)C(=O)N[C@@H](CC(=O)O)C(=O)N[C@H](C(N)=O)[C@@H](C)O)NC(=O)[C@H](C(C)C)NC(=O)[C@H](Cc2ccccc2)NC(=O)[C@H](CC(=O)O)NC1=O)C(=O)O)C(=O)O [SEQ ID NO: 7] (H-H[dS]QGTFTSDK([γGlu-γGlu-Palmitoyl])SKYLDERAAEDFVKWLLDT-NH2; lactam 20-24; N-terminus assumed) | 1.05
